Here are results for 1 molecule from patent US20230101743A1, “SUBSTITUTED TRIAZINE COMPOUNDS AND USES THEREOF” (MUSC FOUNDATION FOR RESEARCH DEVELOPMENT, priority 2020, published 2023).

SMILES strings stand for the structures.

In one test the test system is Albumin. In words: Secreted albumin ELISA in iPSC-derived hepatocytes. The format is cell-based, human. The method, then:
(§1) D. Human iPSC-derived hepatocytes were treated with DL-1 with concentrations ranging from 0.0325 to 12 or 48 μg/mL for 24 hours. Pre-drug and Post-drug medium were collected for analysis. Albumin and APOB levels were determined via ELISA assay. All secreted proteins were compared to non-treated cells. […] Data are shown as mean±SEM of four replicates (n=4); * p<0.01.
E. Human iPSC-derived hepatocytes were treated with 2 μg/mL of DL-1 from 8 to 48 hours. Albumin, APOPA, and APOB level in the culture medium were determined via ELISA. All secreted proteins were compared to non-treated cells. In FIG. 5, accumulated APOB in the medium from different time-point was measured and normalized to albumin level. In FIG. 6, APOA, APOB, and albumin in the medium at the indicated times were compared to control. […] Data are shown as mean±SEM of four replicates (n=4); *p<0.05, **p<0.01.
(§2) Human APOB level was determined via a commercial sandwich ELISA (3715-1H-6; Mabtech), and the signal was detected using the HRP-TMB system. The concentration of APOB was determined using a standard curve with four parameters logistic regression model. Human APOA level was determined via a commercial sandwich ELISA (3710-1H-6; Mabtech) following manufacture instruction. Human albumin levels in cell culture supernatants were measured by commercial ELISA (E88-129; Bethyl Laboratories) following manufactural instructions.
On the technique in general: ELISA stands for enzyme-linked immunosorbent assay.

The subject of test [1] is APOB secretion in the culture medium of hepatic cells. In words: Secreted APOB ELISA in hepatic cells (K3 and JD4 iPSC-derived hepatocytes, human primary hepatocytes, HepG2). It counts as cell-based. As to conditions: 2 μg/mL, 24 hours; compared to DMSO-treated cells. On the procedure:
A. Human-induced pluripotent stem cells from a health donor (K3) and HoFH patient (JD4) were differentiated into hepatocytes via a defined protocol. Two different iPSC-derived Hepatocytes along with human primary hepatocytes and HepG2 cells were treated with 2 μg/mL of DL-1 for 24 hours and secreted APOB level were determined via human-specific APOB ELISA and were compared to DMSO-treated cells. […] Data shown as mean±SEM of triplicates (n=3); * p<0.05, *** P<0.001.
Human iPSCs were generated previously and have been described elsewhere (Si-Tayeb, 2010; Cayo et al., 2012). […]
as §2

Test [2] has as its system apolipoprotein B (APOB-100). In words: Secreted APOB ELISA in human iPSC-derived hepatocyte-like cells. The format is cell-based. On the procedure: as §1
E. Human iPSC-derived hepatocytes were treated with 2 μg/mL of DL-1 from 8 to 48 hours. Albumin, APOPA, and APOB level in the culture medium were determined via ELISA. All secreted proteins were compared to non-treated cells. In FIG. 5, accumulated APOB in the medium from different time-point was measured and normalized to albumin level. […]
F. Twenty-one compounds that are structurally similar to DL-1 were tested with the concentration of 2 μg/mL in human iPSC-derived hepatocytes for 24 hours. Secreted APOB levels were determined and compared to the DMSO-treated group. […] Data is shown as mean±SEM of replicates (n=8) and as quantification value of each derivative. […]
Differentiated human hepatocyte-like cells were treated with representative compounds of the invention (2 μg/mL) or equivalent amount of DMSO (0.5%) as the placebo group for 24 hours. […] The secreted level of apolipoprotein B (APOB-100), the core protein of LDL-C, were determined via enzyme-linked immunosorbent assay (ELISA). […]

[3] abbreviates: 0.0325 to 12 or 48 μg/mL, 24 hours.

As for `Sc1nc(S)nc(Nc2ccc(Nc3ccccc3)cc2)n1` (racemic) [DL-1, 6-{[4-(phenylamino)phenyl]amino}-1,3,5-triazine-2,4-dithiol], in the test with Albumin (2 μg/mL, 8 to 48 hours), the “albumin level in culture medium, time course” value is “without affecting albumin and APOA level”. In addition, the “albumin level, dose-response” value in the test on Albumin (setting [3]) is reported as “without affecting albumin”. The “secreted APOB level” value in test [1] is reported as “reduces APOB secretion”. For the same molecule, the “APOB level in culture medium, time course” value in test [2] (2 μg/mL, 8 to 48 hours) is “reduces APOB level in a time-dependent manner”. In test [2] (setting [3]), the “APOB secretion level, dose-response” value is recorded as “reduces APOB secretion level in a dose-response manner”.
